From US10670605B2, “Cysteine reactive probes and uses thereof” (The Scripps Research Institute, priority 2015, dated 2020)
Counter-ions that a name gives are not always drawn.

Assays:
[1] = test system: cysteines in MDA-MB-231 and Ramos cell proteomes; test: Competitive isoTOP-ABPP in cell lysates (in vitro): proteomic reactivity / liganded cysteine rate; format: binding, human; details: fragment 500 μM; % of quantified cysteines with R ≥4
Experimental: All cell lines were obtained from ATCC, were used with a low passage number and were grown at 37° C. with 5% CO2. MDA-MB-231 cells and HEK-293T cells were grown in DMEM supplemented with 10% fetal bovine serum, penicillin, streptomycin and glutamine. Jurkat, Ramos and MUM2C cells were grown in RPMI-1640 medium supplemented with 10% fetal bovine serum, penicillin and streptomycin. For in vitro labeling, cells were grown to 100% confluence for MDA-MB-231 cells or until cell density reached 1.5 million cells/mL for Ramos and Jurkat cells. […] Cell pellets were lysed by sonication and fractionated (100,000 g, 45 min) to yield soluble and membrane fractions, which were then adjusted to a final protein concentration of 1.5 mg/mL for proteomics experiments and 1 mg/mL for gel-based ABPP experiments. The soluble lysate was prepared fresh from frozen pellets directly before each experiment. Protein concentration was determined using the Bio-Rad DC™ protein assay kit.
For each sample, 100 μL of streptavidin-agarose beads slurry (Pierce) was washed in 10 mL PBS and then resuspended in 5 mL PBS. The SDS-solubilized proteins were added to the suspension of streptavidin-agarose beads and the bead mixture was rotated for 3 h at ambient temperature. After incubation, the beads were pelleted by centrifugation (1,400 g, 3 min) and were washed (2×10 mL PBS and 2×10 mL water).
The beads were transferred to eppendorf tubes with 1 mL PBS, centrifuged (1,400 g, 3 min), and resuspended in PBS containing 6 M urea (500 μL). To this was added 10 mM DTT (25 μL of a 200 mM stock in water) and the beads were incubated at 65° C. for 15 mins. 20 mM iodoacetamide (25 μL of a 400 mM stock in water) was then added and allowed to react at 37° C. for 30 mins with shaking. The bead mixture was diluted with 900 μL PBS, pelleted by centrifugation (1,400 g, 3 min), and resuspended in 200 μL PBS. To this was added 1 mM CaCl2 ([…]) and trypsin (2 μg, Promega, sequencing grade) and the digestion was allowed to proceed overnight at 37° C. with shaking. The beads were separated from the digest with Micro Bio-Spin columns (Bio-Rad) by centrifugation (1,000 g, 1 min), washed (2×1 mL PBS and 2×1 mL water) and then transferred to fresh eppendorfs with 1 mL water. The washed beads were washed once further in 140 μL TEV buffer (50 mM Tris, pH 8, 0.5 mM EDTA, 1 mM DTT) and then resuspended in 140 μL TEV buffer. 5 μL TEV protease (80 μM) was added and the reactions were rotated overnight at 29° C. The TEV digest was separated from the beads with Micro Bio-Spin columns by centrifugation (1,400 g, 3 min) and the beads were washed once with water (100 μL). The samples were then acidified to a final concentration of 5% (v/v) formic acid and stored at −80° C. prior to analysis.

MKI67 C903 (P46013) = MKI67 C903 (P46013) (Homo sapiens, UniProt P46013); test: Competitive isoTOP-ABPP in situ; format: cell-based; details: fragment 2 at 200 μM, MDA-MB-231 cells
PKCθ C14/C17 = molecular target: T1, PKCθ C14/C17 (Homo sapiens, UniProt Q04759); test: isoTOP-ABPP of compound-treated primary human T cells; format: cell-based; details: for R value (DMSO/DMF): PRKCQ C14 (Q04759)
T1 construct: endogenous in cells; host or cells: primary human T cells
Experimental: (§1) Cells were lysed by sonication and diluted to a concentration of 2 mg protein/mL. Protein concentrations were measured with the Bio-Rad DC™ protein assay reagents A and B (5000113, 5000114; Bio-Rad). 500 μL of proteome sample was treated with 100 μM of IA-alkyne probe using […] of a 10 mM DMSO stock. The labeling reactions were incubated at room temperature for 1 h upon which time the samples were conjugated to isotopically-labeled TEV-cleavable tags (TEV tags) by copper-catalyzed azide-alkyne cycloaddition (CuACC or ‘click chemistry’). 60 μL of heavy click chemistry reaction mixture was added to the DMSO-treated control sample and 60 μL of the light reaction mixture was added to the compound-treated sample. The click reaction mixture comprised TEV tags (10 μL of a 5 mM stock, light (fragment treated) or heavy (DMSO treated)), CuSO4 (10 μL of a 50 mM stock in water), and TBTA (30 μL of a 1.7 mM stock in 4:1 tBuOH:DMSO). To this was added TCEP (10 μL of a 50 mM stock). The reaction was performed for 1 h at room temperature.
(§2) The resulting pellets were resuspended in 500 μL of cold methanol by sonication and the heavy and light samples combined pairwise. Combined pellets were then washed with cold MeOH, after which the pellet was solubilized in PBS containing 1.2% SDS by sonication. The samples were heated at 90° C. for 5 min and subjected to streptavidin enrichment of probe-labeled proteins, sequential on-bead trypsin and TEV digestion, and liquid chromatography-tandem mass spectrometry (LC-MS/MS) according to the published isoTOP-ABPP protocols.
(§3) The quantification of heavy/light ratios (isoTOP-ABPP ratios, R values) was performed by in-house CIMAGE software using default parameters (3 MS1's per peak and signal to noise threshold of 2.5). Site-specific engagement of electrophilic compounds was assessed by blockade of IA-alkyne probe labeling. […] Overlapping peptides with the same labeled cysteine (for example, same local sequence around the labeled cysteines but different charge states, MudPIT segment numbers, or tryptic termini) were grouped together, and the median ratio from each group was recorded as the R value of the peptide for that run.

PKCθ C322 = molecular target: T2, PKCθ C322 (Homo sapiens, UniProt Q04759); test: as above; format: cell-based; details: 50 μM, 4 h
T2 construct: endogenous in cells; host or cells: primary human T cells
Experimental: as §1, §2, §3

PRKDC C4045 = molecular target: T3, PRKDC C4045 (Homo sapiens, UniProt P78527); test: as above; format: cell-based; details: for R value (DMSO/DMF): PRKDC C4045 (P78527)
T3 construct: endogenous in cells; host or cells: primary human T cells
Experimental: as §1, §2, §3

T3 sequence (P78527 whole entry): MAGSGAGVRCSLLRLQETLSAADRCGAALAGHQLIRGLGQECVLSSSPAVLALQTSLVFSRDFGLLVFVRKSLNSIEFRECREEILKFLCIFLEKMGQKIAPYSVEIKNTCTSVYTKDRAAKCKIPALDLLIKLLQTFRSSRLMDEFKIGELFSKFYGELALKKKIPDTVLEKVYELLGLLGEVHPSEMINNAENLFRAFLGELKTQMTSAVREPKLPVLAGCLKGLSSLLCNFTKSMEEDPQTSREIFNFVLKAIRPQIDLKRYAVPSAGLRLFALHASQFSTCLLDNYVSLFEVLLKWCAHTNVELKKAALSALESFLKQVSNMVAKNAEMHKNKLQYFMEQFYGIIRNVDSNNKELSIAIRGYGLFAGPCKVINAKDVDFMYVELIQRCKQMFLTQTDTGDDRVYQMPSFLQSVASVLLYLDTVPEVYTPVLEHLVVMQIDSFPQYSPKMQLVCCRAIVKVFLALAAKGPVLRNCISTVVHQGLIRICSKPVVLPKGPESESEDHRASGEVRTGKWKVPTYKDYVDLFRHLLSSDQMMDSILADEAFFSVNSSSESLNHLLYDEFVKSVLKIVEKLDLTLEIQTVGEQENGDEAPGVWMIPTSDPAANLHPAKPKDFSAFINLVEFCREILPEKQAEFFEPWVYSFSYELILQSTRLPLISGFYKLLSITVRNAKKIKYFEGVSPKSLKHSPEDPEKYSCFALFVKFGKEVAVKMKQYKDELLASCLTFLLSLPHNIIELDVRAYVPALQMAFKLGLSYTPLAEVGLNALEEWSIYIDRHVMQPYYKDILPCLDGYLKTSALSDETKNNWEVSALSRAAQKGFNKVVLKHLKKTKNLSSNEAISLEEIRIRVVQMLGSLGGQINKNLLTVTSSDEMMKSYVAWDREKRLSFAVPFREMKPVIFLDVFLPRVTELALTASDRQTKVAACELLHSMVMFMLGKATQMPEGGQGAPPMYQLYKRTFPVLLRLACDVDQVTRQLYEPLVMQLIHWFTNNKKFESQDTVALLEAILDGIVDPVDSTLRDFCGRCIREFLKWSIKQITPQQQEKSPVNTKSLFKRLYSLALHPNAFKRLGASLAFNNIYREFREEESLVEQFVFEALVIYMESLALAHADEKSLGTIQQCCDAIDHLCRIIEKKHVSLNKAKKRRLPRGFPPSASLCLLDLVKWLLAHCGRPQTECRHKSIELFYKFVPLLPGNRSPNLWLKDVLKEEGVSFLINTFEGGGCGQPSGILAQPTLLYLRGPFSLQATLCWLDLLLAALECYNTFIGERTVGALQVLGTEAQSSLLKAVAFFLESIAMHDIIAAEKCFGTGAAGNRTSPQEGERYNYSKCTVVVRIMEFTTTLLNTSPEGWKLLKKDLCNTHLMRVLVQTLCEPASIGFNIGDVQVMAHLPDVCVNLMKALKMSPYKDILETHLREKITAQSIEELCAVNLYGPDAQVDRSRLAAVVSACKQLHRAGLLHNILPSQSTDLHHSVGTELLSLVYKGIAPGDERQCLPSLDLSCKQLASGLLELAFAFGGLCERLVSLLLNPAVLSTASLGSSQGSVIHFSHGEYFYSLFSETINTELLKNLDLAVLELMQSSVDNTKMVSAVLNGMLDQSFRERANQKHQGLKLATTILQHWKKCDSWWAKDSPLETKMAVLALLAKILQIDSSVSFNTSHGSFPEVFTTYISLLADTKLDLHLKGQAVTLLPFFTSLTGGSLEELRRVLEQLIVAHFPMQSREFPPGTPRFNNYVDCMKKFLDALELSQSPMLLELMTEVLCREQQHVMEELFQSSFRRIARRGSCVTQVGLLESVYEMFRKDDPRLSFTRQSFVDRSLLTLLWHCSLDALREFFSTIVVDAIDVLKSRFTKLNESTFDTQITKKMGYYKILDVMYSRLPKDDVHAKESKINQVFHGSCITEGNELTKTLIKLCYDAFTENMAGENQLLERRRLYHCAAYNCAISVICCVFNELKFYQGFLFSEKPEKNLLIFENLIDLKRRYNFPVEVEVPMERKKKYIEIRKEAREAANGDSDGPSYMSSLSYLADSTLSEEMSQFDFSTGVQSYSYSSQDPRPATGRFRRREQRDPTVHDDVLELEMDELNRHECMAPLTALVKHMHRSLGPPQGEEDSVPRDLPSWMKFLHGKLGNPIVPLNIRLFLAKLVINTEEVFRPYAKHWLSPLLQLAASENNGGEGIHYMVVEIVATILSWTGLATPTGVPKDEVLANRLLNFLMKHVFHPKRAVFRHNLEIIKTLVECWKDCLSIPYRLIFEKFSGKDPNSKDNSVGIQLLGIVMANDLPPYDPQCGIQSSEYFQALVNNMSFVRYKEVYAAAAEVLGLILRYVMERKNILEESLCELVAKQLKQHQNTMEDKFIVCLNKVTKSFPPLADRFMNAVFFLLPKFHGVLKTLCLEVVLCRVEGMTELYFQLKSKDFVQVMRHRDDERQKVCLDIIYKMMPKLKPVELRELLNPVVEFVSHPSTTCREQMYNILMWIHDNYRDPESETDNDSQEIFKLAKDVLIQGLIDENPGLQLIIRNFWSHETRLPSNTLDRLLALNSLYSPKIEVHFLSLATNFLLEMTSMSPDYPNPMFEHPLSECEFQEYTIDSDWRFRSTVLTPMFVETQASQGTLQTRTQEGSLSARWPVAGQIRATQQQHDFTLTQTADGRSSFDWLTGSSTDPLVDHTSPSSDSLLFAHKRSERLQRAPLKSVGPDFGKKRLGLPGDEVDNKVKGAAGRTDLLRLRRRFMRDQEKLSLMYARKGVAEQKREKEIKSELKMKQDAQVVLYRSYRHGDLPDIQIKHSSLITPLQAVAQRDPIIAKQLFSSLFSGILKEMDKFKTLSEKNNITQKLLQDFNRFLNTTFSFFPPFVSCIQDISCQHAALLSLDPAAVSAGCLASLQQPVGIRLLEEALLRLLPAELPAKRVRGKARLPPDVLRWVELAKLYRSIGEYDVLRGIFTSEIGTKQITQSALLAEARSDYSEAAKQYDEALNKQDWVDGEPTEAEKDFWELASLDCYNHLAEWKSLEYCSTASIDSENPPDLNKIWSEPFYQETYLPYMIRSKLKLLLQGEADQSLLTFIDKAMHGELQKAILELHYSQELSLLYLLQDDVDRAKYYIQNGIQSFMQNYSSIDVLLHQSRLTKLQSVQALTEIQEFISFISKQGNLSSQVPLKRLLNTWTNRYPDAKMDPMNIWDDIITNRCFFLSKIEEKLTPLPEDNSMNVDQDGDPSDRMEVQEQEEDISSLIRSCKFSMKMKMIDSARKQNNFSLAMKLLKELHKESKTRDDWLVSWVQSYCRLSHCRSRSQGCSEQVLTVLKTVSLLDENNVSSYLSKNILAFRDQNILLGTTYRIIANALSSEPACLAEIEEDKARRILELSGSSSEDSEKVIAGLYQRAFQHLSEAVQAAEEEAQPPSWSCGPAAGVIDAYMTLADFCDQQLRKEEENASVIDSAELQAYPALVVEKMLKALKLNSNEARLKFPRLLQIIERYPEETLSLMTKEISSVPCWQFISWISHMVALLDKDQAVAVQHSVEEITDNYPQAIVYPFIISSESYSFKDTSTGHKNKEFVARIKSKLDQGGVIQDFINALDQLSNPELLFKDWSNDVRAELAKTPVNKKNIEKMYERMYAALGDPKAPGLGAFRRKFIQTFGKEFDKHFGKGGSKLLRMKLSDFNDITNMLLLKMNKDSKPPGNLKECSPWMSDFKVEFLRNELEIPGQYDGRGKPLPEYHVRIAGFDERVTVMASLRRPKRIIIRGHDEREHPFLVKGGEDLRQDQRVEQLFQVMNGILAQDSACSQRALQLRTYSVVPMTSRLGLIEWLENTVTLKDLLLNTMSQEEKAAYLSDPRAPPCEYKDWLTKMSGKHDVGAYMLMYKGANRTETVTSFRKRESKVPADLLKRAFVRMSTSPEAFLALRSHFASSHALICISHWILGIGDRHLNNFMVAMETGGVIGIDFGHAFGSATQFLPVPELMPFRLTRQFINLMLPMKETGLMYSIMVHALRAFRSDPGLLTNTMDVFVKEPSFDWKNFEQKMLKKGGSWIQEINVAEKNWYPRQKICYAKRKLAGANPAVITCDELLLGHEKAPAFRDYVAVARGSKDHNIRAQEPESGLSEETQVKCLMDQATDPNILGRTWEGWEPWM
T1 sequence (Q04759 whole entry): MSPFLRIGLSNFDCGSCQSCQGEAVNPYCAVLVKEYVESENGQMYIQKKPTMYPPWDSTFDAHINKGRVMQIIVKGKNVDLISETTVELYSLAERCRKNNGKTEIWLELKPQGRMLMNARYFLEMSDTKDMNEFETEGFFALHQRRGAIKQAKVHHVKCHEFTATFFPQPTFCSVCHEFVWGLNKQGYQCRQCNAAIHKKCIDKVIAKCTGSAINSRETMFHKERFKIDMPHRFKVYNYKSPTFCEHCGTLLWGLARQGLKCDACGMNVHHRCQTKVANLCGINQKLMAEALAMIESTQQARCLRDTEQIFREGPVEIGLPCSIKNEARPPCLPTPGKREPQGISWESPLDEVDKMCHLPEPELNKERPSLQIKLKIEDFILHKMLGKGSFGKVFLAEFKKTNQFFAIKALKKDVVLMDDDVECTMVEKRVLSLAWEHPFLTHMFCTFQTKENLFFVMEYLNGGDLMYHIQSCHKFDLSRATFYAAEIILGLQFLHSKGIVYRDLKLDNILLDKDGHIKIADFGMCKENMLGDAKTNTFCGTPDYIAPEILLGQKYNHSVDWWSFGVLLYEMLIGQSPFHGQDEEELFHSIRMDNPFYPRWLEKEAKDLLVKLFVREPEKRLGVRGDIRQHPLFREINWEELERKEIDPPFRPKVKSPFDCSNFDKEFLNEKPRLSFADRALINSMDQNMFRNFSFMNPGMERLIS
T2 sequence (Q04759 whole entry): as above

O=C(CCl)Nc1cc(C(F)(F)F)cc(C(F)(F)F)c1 [compound 3]
proteomic reactivity value (liganded cysteine rate) [1]: 15%

COc1ccc2c(c1)CCCN2C(=O)CCl [compound 2]
isoTOP-ABPP reactivity profile (ratio) 2_200 μM_in-situ_231 (MKI67 C903 (P46013)): 20.0

COC(=O)/C=C/C(=O)OC [DMF, dimethyl fumarate]
IA-alkyne reactivity of PKCθ C14 and C17 (PKCθ C14/C17; 50 μM, 4 h): blocked
R value (DMSO/DMF) (PKCθ C14/C17; DMF 10 μM 4h): 1.62
R value (DMSO/DMF) (PKCθ C14/C17; DMF 25 μM 4h): 3.29
R value (DMSO/DMF) (PKCθ C14/C17; DMF 50 μM 2h): 2.92
R value (DMSO/DMF) (PKCθ C14/C17; DMF 50 μM 4h): 4.21
IA-alkyne reactivity of PKCθ C322 (PKCθ C322): unaffected
IA-alkyne reactivity of PRKDC C4045 (PRKDC C4045; 50 μM, 4 h): blocked
R value (DMSO/DMF) (PRKDC C4045; DMF 50 μM 1h): 4.14
R value (DMSO/DMF) (PRKDC C4045; DMF 50 μM 2h): 10.53
